Results from patent US9334242B2, “Compounds for treatment of cancer” (GTX, INC., priority 2010, dated 2016).
Like-named read-outs stand apart in the source and are kept apart here. Values belong to the compound of their own block, whether it stands above or below them.

What was measured:
[1] = system: B16-F1 melanoma cells; experiment: Melanoma colony formation assay in soft agar; assay type: cell-based, mouse; conditions: 14 days, tested 20, 100, 500 nM
Protocol: B16-F1 melanoma cells were plated at a colony-forming density (2000 cells per well on six-well plates) on top of 0.8% base agar. Cells were grown in 0.4% agar together with DMEM medium supplemented with fetal bovine serum and an antibiotic-antimycotic solution at 37° C. in an atmosphere of 95% air and 5% CO2. […] Compounds were added to the media from 1-mM DMSO stock solutions, and a corresponding dilution of DMSO was used as control. Cells were grown for 14 days. Plates were photographed, and the number of colonies was measured by Artek 880 Automated Colony Counter (Artek Systems Corporation, Farmingdale, N.Y.).

[2] = system: WM-164 melanoma cells; experiment: Microtubule imaging (immunofluorescence, Cellomics Cytoskeleton rearrangement kit); assay type: cell-based, human; conditions: WM-164 cells, 18 h
Description: Primary antibody for tubulin and fluorescence-labeled secondary antibody were subsequently added to the cells. Cell nuclei were stained by DAPI. Whole Cell Stain Green was also applied to all cells. All images were acquired with an Olympus IX71 inverted fluorescence microscope (Olympus Corp., Tokyo, Japan) with overlays from separate images of tubulin (red), nuclei (blue), and whole cells (green).

[3] = system: OVCAR-8; experiment: Cytotoxicity SRB assay, MDR model parent line; assay type: cell-based; conditions: Homo sapiens
[4] = system: MES-SA; experiment: Growth inhibition SRB assay, parental line; assay type: cell-based; conditions: Homo sapiens, Table 6, read-out: IC50 ± SEM (nM) MES-SA
[5] = system: MES-SA/DX5; experiment: Growth inhibition SRB assay, P-gp over-expressing line; assay type: cell-based; conditions: Homo sapiens, Table 6, read-out: IC50 ± SEM (nM) MES-SA/Dx5
[6] = system: T1, tubulin colchicine binding site; experiment: [3H]-colchicine competition-binding scintillation proximity assay; conditions: SPA
T1 construct: […]; other: SPA

[7] = system: PPC-1; experiment: Cytotoxicity / cell growth inhibition, SRB assay; conditions: Homo sapiens
[8] = system: PC-3_TxR; experiment: Cytotoxicity SRB assay, paclitaxel-resistant prostate line; conditions: for IC50: Homo sapiens, PC3-TxR, read-out: IC50 ± SEM (nM) PC-3_TxR; for Resistance Factor: PC-3_TxR versus PC-3
[9] = system: WM-164; experiment: Cytotoxicity / cell growth inhibition, SRB assay; assay type: cell-based; conditions: Homo sapiens, WM164, Table 6A
[10] = in vivo; conditions: female, Sprague-Dawley, rat, plasma; for bioavailability: 10 mg/kg
[11] = in vivo; conditions: male, ICR, mouse, plasma, iv, 10 mg/kg
[12] = molecular target: Bovine brain tubulin (Bos taurus, UniProt P81947+Q6B856); experiment: In vitro tubulin polymerization assay; assay type: biochemical; conditions: 10 μM
Protocol: In Vitro Tubulin Polymerization Assay.
In vitro microtubule polymerization assay. […] The spectrophotometer was maintained at 37° C. for tubulin polymerization.

[13] = system: A375 cells; experiment: Apoptosis detection by ELISA (cytoplasmic DNA-histone complexes); assay type: cell-based, human; conditions: 24 h
Description: (§1) Apoptosis detection by ELISA. Quantification of the enrichment of mono- and oligonucleosomes in the cytoplasm was used to determine the ability of the compounds to induce apoptosis (cell death detection ELISA PLUS, Roche, Germany) following the manufacturer's instructions.

[14] = system: PC-3 cells; experiment: as above; assay type: cell-based, human; conditions: 24 h
Description: as §1

[15] = system: A375 melanoma xenografts; experiment: A375 tumor xenograft study in athymic nude mice; assay type: in vivo, mouse; conditions: 1h 20 mg/kg, 2k 15 mg/kg, i.p.
Description: (§2) PC-3 and A375 tumor xenograft studies.

[16] = system: PC-3 prostate tumor xenograft; experiment: PC-3 tumor xenograft study in nude mice; assay type: in vivo, mouse; conditions: for % T/C: PC-3 xenograft; for mice that lost more than 15% body weight: PC-3 xenograft study
Description: as §2

[17] = system: PC-3; experiment: Cytotoxicity / cell growth inhibition, SRB assay; conditions: Homo sapiens
[18] = system: prostate cancer cells (LNCaP, DU 145, PC-3, PPC-1); experiment: Cytotoxicity SRB assay, values quoted for the prostate cancer cell panel; assay type: cell-based; conditions: Homo sapiens, read-out: IC50s against prostate cancer cells (range)
[19] = system: A375 human melanoma xenograft; experiment: In vivo anti-tumor activity, A375 human melanoma xenograft on SHO mice; conditions: 25 mg/kg, 31 days
[20] = system: melanoma (B16-F1, A375, WM-164) and prostate cancer (LNCaP, PC-3, DU 145, PPC-1) cell lines; experiment: Cytotoxicity SRB assay, ranges or averages quoted over the melanoma and prostate cancer cell lines; assay type: cell-based; conditions: range given; read-out: IC50 (range over the tested cancer cell lines)
[21] = Pharmacokinetic study in ICR mice
[22] = system: B16-F1; experiment: Cytotoxicity / cell growth inhibition, sulforhodamine B (SRB) assay; assay type: cell-based; conditions: Mus musculus, B16-F1, 96 h, 96 h of treatment, read-out: IC50 ± SEM (nM) B16-F1
[23] = system: A375; experiment: Cytotoxicity / cell growth inhibition, SRB assay; assay type: cell-based; conditions: Homo sapiens, A-375, 96 h, 96 h of treatment, read-out: IC50 ± SEM (nM) A375
[24] = system: DU 145; experiment: Cytotoxicity / cell growth inhibition, SRB assay; conditions: Homo sapiens, DU-145, 96 h, read-out: IC50 ± SEM (nM) DU 145, SRB assay, 96 h of treatment
[25] = system: LNCaP; experiment: Cytotoxicity / cell growth inhibition, SRB assay; conditions: Homo sapiens, 96 h, read-out: IC50 ± SEM (nM) LNCaP, SRB assay, 96 h of treatment
[26] = system: B16-F1 melanoma tumors; experiment: In vivo anti-tumor activity, B16-F1 melanoma in C57/BL mice; set-up: species or system mouse; conditions: 60 mg/kg i.p. daily, 14 days, C57/BL mice (positive control)
[27] = Aqueous solubility, Multiscreen Solubility Filter Plate, PBS pH 7.4, LC-MS/MS; assay type: physicochemical; conditions: HCl salt of 2r
[28] = system: ICR mice; experiment: Rotarod test (in vivo neurotoxicity); set-up: species or system mouse; conditions: 1h 5 or 15 mg/kg, vinblastine 0.5 mg/kg, i.p. daily to day 31
[29] = system: Porcine brain tubulin; experiment: In vitro microtubule polymerization assay; assay type: biochemical
[30] = Pharmacokinetic study in Sprague-Dawley rats; conditions: rat
[31] = PC-3, 96 h, read-out: IC50 ± SEM (nM) PC-3, SRB assay, 96 h of treatment

SMILES: COc1ccc(-c2nc(C(=O)c3ccc(F)cc3)c[nH]2)cc1 [12cb, (4-fluorophenyl)(2-(4-methoxyphenyl)-1H-imidazol-4-yl)methanone]
concentration with effective inhibition of B16-F1 melanoma colony formation [1]: 20 nM
effect on microtubule arrangement [2]: microtubule fragmentation

SMILES: CC(=O)O[C@H]1C(=O)[C@@]2(C)[C@H]([C@H](OC(=O)c3ccccc3)[C@]3(O)C[C@H](OC(=O)[C@H](O)[C@@H](NC(=O)c4ccccc4)c4ccccc4)C(C)=C1C3(C)C)[C@]1(OC(C)=O)CO[C@@H]1C[C@@H]2O [paclitaxel]
IC50 ([3]; OVCAR-8, read-out: IC50 (nM) OVCAR-8): 4.7 ± 0.1 nM
IC50 ([3]; OVCAR-8, read-out: IC50 ± SEM (nm) OVCAR-8): 4.7 ± 0.1 nM
IC50 [4]: 2.7 nM
IC50 [5]: 6.6 nM
competition for the tubulin colchicine binding site (in words) [6]: flat line
effect on microtubule arrangement [2]: condensation of microtubules
IC50 ([7]; PPC-1, 96 h, read-out: IC50 ± SEM (nM) PPC-1): 2.3 nM
IC50 ([7]; PPC-1, read-out: IC50 ± SEM (nM) PPC-1): 2.3 ± 0.8 nM
IC50 ([7]; PPC-1, read-out: IC50 ± SEM (nm) PPC-1): 2.3 ± 0.8 nM
IC50 [8]: 97 ± 1 nM
Resistance Factor [8]: 20

SMILES: O=C(c1ccc(F)cc1)c1csc(-c2ccccc2)n1 [compound 12]
IC50 [9]: > 10000 nM

Vd ([10]; iv, 5 mg/kg): 1.9 L/kg
clearance ([10]; iv, 5 mg/kg): 16 mL/min/kg
Vd [11]: 4 L/kg
clearance [11]: 61 mL/min/kg
SMILES: COc1cc(C(=O)c2c[nH]c(-c3ccc(Cl)cc3)n2)cc(OC)c1OC [12fa, (2-(4-chlorophenyl)-1H-imidazol-4-yl)(3,4,5-trimethoxyphenyl)methanone]

SMILES: COc1cc(C(=O)c2csc(-c3ccc(F)cc3)n2)cc(OC)c1OC [2k]
inhibition of tubulin polymerization ([12]; 15 min (Example 22)): 90%
concentration inducing apoptosis [13]: 50 nM
concentration inducing apoptosis [14]: 50 nM
% T/C, A375 [15]: 29%
tumor volume, A375 ([15]; 34 days): 722 mm^3
% T/C ([16]; 5 mg/kg i.p.): 21%
% T/C ([16]; 15 mg/kg i.p.): 24%
mice that lost more than 15% body weight ([16]; 15 mg/kg i.p.): 2 out of 7

SMILES: COc1cc(C(=NC#N)c2csc(-c3ccccc3)n2)cc(OC)c1O [compound 32, N-((4-hydroxy-3,5-dimethoxyphenyl)(2-phenylthiazol-4-yl)methylene)cyanamide]
IC50 ([17]; PC-3, read-out: IC50 (nM) PC-3, Table 6A): 229 nM

SMILES: COc1cc(C(=O)c2cccc(-c3ccccc3)n2)cc(OC)c1OC [1c, (6-Phenylpyridin-2-yl)(3,4,5-trimethoxyphenyl)methanone]
IC50 [18]: 0.012 to 0.035 µM

SMILES: O=C(c1ccc(F)cc1)c1c[nH]c(-c2ccc(Cl)cc2)n1 [12fb, (2-(4-chlorophenyl)-1H-imidazol-4-yl)(4-fluorophenyl)methanone]
tolerability (body weight, physical activity) [19]: well tolerated

SMILES: COc1cc(C(=O)c2c[nH]c(-c3ccc(C)cc3)n2)cc(OC)c1OC [12da, (2-(p-tolyl)-1H-imidazol-4-yl)(3,4,5-trimethoxyphenyl)methanone]
inhibition of tubulin polymerization ([12]; 15 min (Example 16)): completely inhibited
competition for the tubulin colchicine binding site (in words) [6]: highest binding affinity
concentration with effective inhibition of B16-F1 melanoma colony formation [1]: 20 nM
effect on microtubule arrangement [2]: microtubule fragmentation

SMILES: COc1cc(C(=O)c2csc(-c3ccc(O)cc3)n2)cc(OC)c1OC [2l, (2-(4-Hydroxyphenyl)thiazol-4-yl)(3,4,5-trimethoxyphenyl)methanone]
IC50 [20]: 0.076 to 0.116 µM
inhibition of tubulin polymerization ([12]; 15 min (Example 22)): 55%
concentration inducing apoptosis [13]: greater than or equal to 200 nM
concentration inducing apoptosis [14]: greater than or equal to 200 nM
% T/C ([16]; 50 mg/kg i.p.): 34%
Vss relative to that of 1h and 2k (times higher) ([21]; ICR mice, 15 mg/kg i.v.): 2-3 times

SMILES: O=C(c1ccc2[nH]ccc2c1)c1csc(-c2cc3ccccc3[nH]2)n1 [compound 21, (2-(1H-indol-2-yl)thiazol-4-yl)(1H-indol-5-yl)methanone]
IC50 [22]: 110 nM
IC50 [23]: 100 nM
IC50 [24]: 116 nM
IC50 [17, 31]: 87 nM
IC50 [25]: 103 nM
IC50 ([7]; PPC-1, 96 h, read-out: IC50 ± SEM (nM) PPC-1, SRB assay, 96 h of treatment): 76 nM

SMILES: CN(C)/N=N/c1[nH]cnc1C(N)=O [DTIC, 5-(3,3,-dimethyl-1-triazenyl)-imidazole-4-carboxamide]
tumor volume reduction [26]: 51%

SMILES: COc1cc(C(=O)c2csc(-c3ccc(CN)cc3)n2)cc(OC)c1OC.Cl [2r, (2-(4-(Aminomethyl)phenyl)thiazol-4-yl)(3,4,5-trimethoxyphenyl)methanone hydrochloride]
IC50 [20]: 0.013 to 0.08 µM
increase of solubility (fold) over compound 1h [27]: over 35 fold
IC50 [17, 31]: 80 nM

SMILES: COc1cc(C(=O)c2csc(-c3ccccc3)n2)cc(OC)c1OC [1h, (2-Phenyl-thiazol-4-yl)-(3,4,5-trimethoxy-phenyl)-methanone]
concentration inducing apoptosis [13]: 50 nM
concentration inducing apoptosis [14]: 50 nM
mice that lost more than 15% body weight ([16]; 15 mg/kg i.p.): 1 of 8
time on the rotating rod compared to the vehicle group [28]: no significant difference

SMILES: CC[C@]1(O)C[C@@H]2CN(CCc3c([nH]c4ccccc34)[C@@](C(=O)OC)(c3cc4c(cc3OC)N(C)[C@H]3[C@@](O)(C(=O)OC)[C@H](OC(C)=O)[C@]5(CC)C=CCN6CC[C@]43[C@@H]65)C2)C1 [vinblastine, reference compound]
time on the rotating rod compared to the vehicle group [28]: gradually reduced the time

SMILES: COc1cc(C(=O)c2csc(Nc3ccc4[nH]ccc4c3)n2)cc(OC)c1OC [compound 55, (2-(1H-indol-5-ylamino)thiazol-4-yl)(3,4,5-trimethoxyphenyl)methanone]
inhibition of tubulin polymerization at 1 μM [29]: 11%
bioavailability ([10]; oral): 33%
bioavailability ([10]; po): 33%
MousePK_IV10mgk_Cl ([21]; mouse, i.v. 10 mg/kg): 40 mLmin/kg
MousePK_IV10mgk_V ([21]; mouse, i.v. 10 mg/kg): 1.3 Lkg
MousePK_Bioavailability ([21]; mouse, oral): 34 %F
oral bioavailability, mice ([21]; p.o. 20 mg/kg versus i.v. 10 mg/kg): 34%
RatPK_IV5mgk_V ([30]; i.v. 5 mg/kg): 1.0 Lkg
RatPK_PO10mgk_AUC ([30]; p.o. 10 mg/kg): 335 µg·min/mL
RatPK_PO10mgk_Cmax ([30]; p.o. 10 mg/kg): 1052 ng/mL
IC50 [8]: 29 ± 1 nM
Resistance Factor [8]: 1.2
